Source: patent US20230346777A1, “USE OF SGC ACTIVATORS FOR THE TREATMENT OF OPHTHALMOLOGIC DISEASES” (Bayer Aktiengesellschaft, priority 2020, published 2023)
Entries after “also recorded” stand apart in the source; their conditions may differ. Structures can show the parent of a compound that is named as a salt.

How the values were obtained:
[1] = test system: retinal ischemia reperfusion (I/R) in rat; assay: Acute changes in rat retinal structure after retinal ischemia reperfusion (I/R), prophylactic settings; type: in vivo, male Wistar Unilever rats; conditions: I/R rats
Text: B-7 Evaluation of Acute Changes in Rat Retinal Structure after Retinal Ischemia Reperfusion (I/R) Prophylactic Settings
Six male Wistar Unilever rats were used per experimental group. On induction day, rats were anesthetized with an intraperitoneal injection of Rompun® and Ketavet® before the pupils of the right eyes (oculus dextrus, OD) were dilated with Alcain eye drops and in addition treated with Vigamox® eye drops. The left eye (oculus sinister, OS) is covered with Bepanthen® eye cream. Under deep anesthesia, the retina and the optic nerve were examined by optical coherence tomography (OCT) as a baseline measurement. 15 minutes before induction, group 2 received an intravenous (IV) bolus of compound (e.g. example 3, formula I-E-R) (i.v. 3 mg/kg in rat plasma). Then, the anterior chamber was punctured with a 30 G needle. Through a tube, 0.9% NaCl solution was pumped into the anterior chamber with a pressure 120 mm Hg. The pressure is regulated with a blood pressure cuff. The intraocular pressure (IOP) was elevated for 45 min. The procedure was successful as the eyeballs discolored because of vascular obstruction. After 45 min, the needle was removed, eye cream was put on the right eye and the animal could wake up. […]
Functional read-out of retinal electrical signal in response to light stimulation “b-wave amplitude (μv)” represents inner retinal function. […]

[2] = test system: retinal ischemia reperfusion (I/R) in rat; assay: Sub-chronic changes in rat retinal structure after retinal ischemia reperfusion (I/R), therapeutic and prophylactic settings; type: in vivo, male Wistar Unilever rats; conditions: for IPL (inner plexiform layer) thickness: H&E sections
Text: B-8 Evaluation of Sub-Chronic Changes in Rat Retinal Structure after Retinal Ischemia Reperfusion (I/R) Therapeutic and Prophylactic Settings
Six male Wistar Unilever rats were used per experimental group. On induction day, rats were anesthetized with an intraperitoneal injection of Rompun® and Ketavet® before the pupils of the right eyes were dilated with Alcain eye drops and in addition treated with Vigamox® eye drops. The left eye is covered with Bepanthen® eye cream. Under deep anesthesia, the retina and the optic nerve were examined by optical coherence tomography (OCT) as a baseline measurement. The induction was done as the anterior chamber was punctured with a 30 G needle. Through a tube, 0.9% NaCl solution was pumped into the anterior chamber with a pressure 120 mm Hg. The pressure is regulated with a blood pressure cuff. The intraocular pressure (IOP) was elevated for 45 min. The procedure was successful as the eyeballs discolored because of vascular obstruction. After 45 min, the needle was removed, eye cream was put on the right eye and the animal could wake up. Compound (e.g. example 3, formula I-E-R) or its vehicle were orally applied, once daily (QD). The application volume was 5 mL/kg. In prophylactic setting, animals started the treatment 2 days before induction and received an intravenous (IV) bolus of compound (e.g. example 3, formula I-E-R) (i.v. 3 mg/kg in rat plasma) 15 minutes before induction. Treatment continued then after for 21 days. In the therapeutic setting, animals received an intravenous (IV) bolus of compound (e.g. example 3, formula I-E-R) (i.v. 3 mg/kg in rat plasma) 15 minutes after induction. Treatment continued then after for 21 days; once daily (3 mg/kg, PO QD). At day 7 and day 21, the retina and the optic nerve were examined by optical coherence tomography (OCT). The retinal function was evaluated by the ERG (Electroretinography) at day 7 and day 21 post induction according to the method disclosed in McCulloch et al., 2015. Functional read-out of retinal electrical signal in response to light stimulation “b-wave amplitude (μv)” represents inner retinal function. Then the eyes were collected for histopathology and preserved in Davidson's solution. The eye sections were stained with hematoxylin and eosin staining. The total retinal thickness and the inner plexiform layer thickness was measured at 1000 μm distances from the optic nerve using (Microscope Software ZEN, Zeiss, Germany).
Neuroprotection: The inner plexiform layer (IPL) functions as a relay station for the vertical-information-carrying nerve cells, the bipolar cells, to connect the photoreceptor cells to the ganglion cells. The IPL layer thickness was measured in histological sections stained with (H&E).

[3] = test system: Streptozotocin-induced DR model in rat; assay: Streptozotocin-induced DR model in rat (STZ rat model); type: in vivo; conditions: STZ diabetic rats, vs vehicle
Description: B-9 Streptozotocin-Induced DR Model in Rat (STZ Rat Model)
135 male 6-week-old male SD rats (200 to 250 g) were randomized to become diabetic or non-diabetic. Following an overnight fast, SD rats were assigned to become diabetic by receiving a single intraperitoneal injection of streptozotocin (55 mg per kg; Sigma-Aldrich, St. Louis, USA) diluted in 0.1M citrate buffer, pH 4.5. Rats were weighed and their blood glucose levels measured (Accu-check Advantage II Blood Glucose Monitor, Roche Diagnostics, USA). Only rats with blood glucose levels greater than 250 mg/dL were considered diabetic (Li et al. 2002). Insulin was administered three times per week to reduce mortality and promote weight gain (2 to 4 units s.c. Humulin NPH, Eli Lilly and Co., Indianapolis, Ind., USA). The pathological events that occur in the early stages of DR were evaluated. Functional read-out of retinal electrical signal in response to light stimulation “b-wave amplitude (μv)” represents inner retinal function. The retinal function ERG (Electroretinography) was tested 2 months after STZ injection according to the method disclosed in McCulloch et al., 2015 and animals were randomized into subgroups with same severity. The animals received treatment after randomization for 2 months and were terminated then after. […]

In the case of `CC(C)CN1CCN(c2ccc(-c3ccc(Cl)cc3N3CCC[C@@H](n4ncc(C(=O)O)c4C(F)F)C3)cc2)CC1` [Example 3, 1-{1-[4-Chloro-4′-(4-isobutylpiperazin-1-yl)[biphenyl]-2-yl]piperidin-3-yl}-5-(difluoromethyl)-1H-pyrazole-4-carboxylic acid hydrochloride], the “retinal structure (OCT and histological examination)” value ([1]; day 7 post ischemic induction) is reported as “preserved retinal structure in both OCT and histological examination”, the “b wave amplitude (ERG, retinal function)” value ([1]; oral QD from 2 days before to 6 days after induction plus i.v. 3 mg/kg bolus 15 min before induction, day 7 post induction, hydrochloride, 3 mg/kg) is reported as “significant higher b wave amplitude compared to vehicle treated animals; also recorded: reduces ischemia induced retinal dysfunction” and the “retinal structure and photoreceptors integrity (histology)” value ([2]; I/R rats vs IR only) is reported as “the retinal structure was preserved, and the photoreceptors integrity was intact”. For the same molecule, the “retinal thickness (histology)” value ([2]; I/R rats, 3 mg/kg PO QD for 21 days plus i.v. 3 mg/kg bolus, at 3 weeks vs IR only) was “significantly higher retinal thickness compared to IR only animals”, the “retinal structure / mean total retinal thickness by optical coherence tomography (OCT)” value ([2]; I/R rats, 1- and 3-weeks post induction vs IR only) was “protect retinal structure” and the “retinal function measured by ERG (b wave amplitude)” value ([2]; I/R rats, one week and 3 weeks post induction vs IR, hydrochloride) was “significant difference in retinal function; also recorded: reduces ischemia induced retinal dysfunction”. For the same molecule, the “IPL (inner plexiform layer) thickness” value ([2]; I/R rats, prophylactic setting (FIG. 4A)) was “preserved”, the “IPL (inner plexiform layer) thickness” value ([2]; I/R rats, therapeutic setting (FIG. 4B)) was “preserved” and the “b wave amplitude (ERG, retinal function)” value ([3]; 15 mg/kg oral gavage QD for 2 months, started 2 months after STZ, hydrochloride, 15 mg/kg) was “significant higher b wave amplitude compared to vehicle treated animals; also recorded: reduces diabetic induced retinal dysfunction and diabetic retinopathy progression”. The “diabetic retinopathy disease progression (b wave values)” value ([3]; oral QD, chronic diabetic retinopathy model) was “prevented disease progression”.
